According to patent US11713338B2, “Cyclic peptides multimers targeting α-4-β-7 integrin” (priority 2016, dated 2023):
Like-named read-outs stand apart in the source and are kept apart here.

What was measured:
[1] = molecular target: T1, integrin α4β1 (RAMOS human cells adhering to VCAM-1) (Homo sapiens, UniProt P05556+P13612); test: Integrin α4β1-VCAM cell adhesion assay (RAMOS cells); format: cell-based; conditions: for IC50: Ramos cells adhering to VCAM, read-out: Ramos Adhesion α4β1/VCAM IC50; for Ratio Ramos/RPMI: ratio of cell adhesion IC50s, Ramos α4β1/VCAM over RPMI8866 α4β7/MAdCAM
T1 construct: Ramos cells, which express integrin α4β1; host or cells: RAMOS
Protocol: Integrin α4β1-VCAM Cell Adhesion Assay
The plate was incubated overnight at 4° C. and washed twice with 150 μl per well wash buffer (0.05% Tween 20 in PBS), blocked with 250 μl per well blocking buffer (1% non-fat dry milk in PBS), for 1 hour at room temperature. During blocking step, RAMOS cells were resuspended at 10 million cells/ml in PBS containing […] and incubated at 37° C. for 30 min in a 50 ml tube. […] The plate was emptied by inverting and blotting on paper towels and washed manually twice with PBS. […] To calculate the dose response, the fluorescence value of control wells not containing cells was subtracted from each test well.

[2] = molecular target: T2, integrin α4β7 (RPMI8866 human cells adhering to MAdCAM-1) (Homo sapiens, UniProt P13612+P26010); test: Integrin α4β7-MAdCAM cell adhesion assay (RPMI8866 cells); format: cell-based
T2 construct: RMP18866 cells, which express integrin α4β7; host or cells: RPMI8866
T2 sequence (P13612 34-1032): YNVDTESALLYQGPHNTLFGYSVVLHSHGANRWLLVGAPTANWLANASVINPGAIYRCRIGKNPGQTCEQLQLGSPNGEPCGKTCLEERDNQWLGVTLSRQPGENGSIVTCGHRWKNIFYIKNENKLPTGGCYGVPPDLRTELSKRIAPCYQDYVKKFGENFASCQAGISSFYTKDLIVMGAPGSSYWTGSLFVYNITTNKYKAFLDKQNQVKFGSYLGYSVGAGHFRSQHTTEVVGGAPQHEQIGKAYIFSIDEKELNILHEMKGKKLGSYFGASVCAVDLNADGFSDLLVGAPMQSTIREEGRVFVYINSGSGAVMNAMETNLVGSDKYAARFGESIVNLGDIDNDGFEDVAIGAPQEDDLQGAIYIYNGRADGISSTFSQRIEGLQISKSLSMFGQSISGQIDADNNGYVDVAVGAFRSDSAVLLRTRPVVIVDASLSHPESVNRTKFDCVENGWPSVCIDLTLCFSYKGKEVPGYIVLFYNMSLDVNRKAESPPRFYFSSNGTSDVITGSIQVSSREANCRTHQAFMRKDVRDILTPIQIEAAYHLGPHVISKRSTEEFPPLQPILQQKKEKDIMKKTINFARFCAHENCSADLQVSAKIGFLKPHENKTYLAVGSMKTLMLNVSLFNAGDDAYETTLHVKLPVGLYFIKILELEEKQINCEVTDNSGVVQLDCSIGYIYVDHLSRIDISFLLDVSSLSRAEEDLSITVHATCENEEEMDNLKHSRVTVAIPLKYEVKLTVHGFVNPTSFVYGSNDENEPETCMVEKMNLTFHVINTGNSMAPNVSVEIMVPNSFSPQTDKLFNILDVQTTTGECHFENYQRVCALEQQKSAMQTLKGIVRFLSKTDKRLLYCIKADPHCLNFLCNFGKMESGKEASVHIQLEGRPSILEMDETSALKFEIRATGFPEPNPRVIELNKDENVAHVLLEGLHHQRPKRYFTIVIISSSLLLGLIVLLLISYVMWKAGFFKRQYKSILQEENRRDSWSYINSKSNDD
T2 sequence (P26010 20-798): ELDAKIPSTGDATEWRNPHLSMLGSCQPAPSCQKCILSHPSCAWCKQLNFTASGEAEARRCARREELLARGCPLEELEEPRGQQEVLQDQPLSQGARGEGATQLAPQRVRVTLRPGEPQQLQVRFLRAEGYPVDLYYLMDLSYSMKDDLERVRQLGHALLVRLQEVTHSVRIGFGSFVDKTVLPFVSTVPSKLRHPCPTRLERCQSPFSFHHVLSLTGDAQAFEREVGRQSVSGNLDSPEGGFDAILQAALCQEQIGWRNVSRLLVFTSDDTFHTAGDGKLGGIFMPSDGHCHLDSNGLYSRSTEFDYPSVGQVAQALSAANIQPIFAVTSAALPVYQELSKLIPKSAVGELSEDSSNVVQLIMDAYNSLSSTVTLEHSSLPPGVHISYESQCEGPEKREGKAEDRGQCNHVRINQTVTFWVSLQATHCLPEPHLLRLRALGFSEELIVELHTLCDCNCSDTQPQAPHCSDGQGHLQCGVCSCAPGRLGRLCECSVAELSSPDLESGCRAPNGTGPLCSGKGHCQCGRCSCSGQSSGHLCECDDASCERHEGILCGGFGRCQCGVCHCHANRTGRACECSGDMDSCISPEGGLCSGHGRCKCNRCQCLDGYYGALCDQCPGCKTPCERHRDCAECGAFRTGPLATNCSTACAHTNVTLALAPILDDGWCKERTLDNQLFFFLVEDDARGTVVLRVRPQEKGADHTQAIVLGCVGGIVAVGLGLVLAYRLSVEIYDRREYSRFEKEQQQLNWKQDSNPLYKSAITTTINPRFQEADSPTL
In short: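 Adhesion was read by calcein fluorescence. RPMI8866 cells were labelled at 10 million cells/ml with […] calcein (37° C., 30 min) and washed twice in PBS before reading. Dose-response values were corrected by subtracting cell-free control well fluorescence.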

[3] = RPMI8866 cells adhering to MAdCAM, read-out: RPMI8866 Adhesion α4β7/MAdCAM IC50

T1 sequence (P05556 21-798, one chain of several): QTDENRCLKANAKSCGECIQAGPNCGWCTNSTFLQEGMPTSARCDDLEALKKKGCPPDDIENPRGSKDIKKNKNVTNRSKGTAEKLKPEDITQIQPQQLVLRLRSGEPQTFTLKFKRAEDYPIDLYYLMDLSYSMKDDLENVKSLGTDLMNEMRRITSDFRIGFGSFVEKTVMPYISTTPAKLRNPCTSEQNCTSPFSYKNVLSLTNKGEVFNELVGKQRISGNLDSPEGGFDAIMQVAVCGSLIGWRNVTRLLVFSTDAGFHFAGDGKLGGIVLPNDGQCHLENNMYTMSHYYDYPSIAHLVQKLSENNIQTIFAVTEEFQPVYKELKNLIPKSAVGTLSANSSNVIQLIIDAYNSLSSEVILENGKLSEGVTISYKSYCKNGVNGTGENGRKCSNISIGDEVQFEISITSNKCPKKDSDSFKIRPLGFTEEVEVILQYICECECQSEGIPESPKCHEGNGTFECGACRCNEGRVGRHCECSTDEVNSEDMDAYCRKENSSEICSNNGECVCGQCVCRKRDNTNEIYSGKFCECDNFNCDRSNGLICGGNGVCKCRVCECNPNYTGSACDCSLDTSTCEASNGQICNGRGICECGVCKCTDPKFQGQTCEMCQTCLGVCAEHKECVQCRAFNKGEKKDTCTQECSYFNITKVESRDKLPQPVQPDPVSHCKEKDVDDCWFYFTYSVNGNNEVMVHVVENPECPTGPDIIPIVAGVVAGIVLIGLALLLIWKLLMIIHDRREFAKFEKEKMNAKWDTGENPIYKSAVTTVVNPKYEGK

SMILES | IC50 [1] | Ratio Ramos/RPMI [1] | IC50 [2, 3] | IC50 ([2]; RPMI8866 cells, read-out: IC50 in the RPMI8866 cell adhesion assay)
CC(C)C[C@@H]1NC(=O)c2ccc(-c3ccc(N4CCN(C(=O)CCCCCCCCCCC(=O)N5CCN(c6ccc(-c7ccc8cc7CNC(=O)[C@@H]7CCCN7[C@H](C(=O)NC(C)(C)C)[C@H](C)NC(=O)[C@H]([C@@H](C)O)NC(=O)[C@H](CC(=O)O)NC(=O)[C@H](CC(C)C)NC8=O)cc6)CC5)CC4)cc3)c(c2)CNC(=O)[C@@H]2CCCN2[C@H](C(=O)NC(C)(C)C)[C@H](C)NC(=O)[C@H]([C@@H](C)O)NC(=O)[C@H](CC(=O)O)NC1=O [Compound 392] | 1840 nM | 65 | 28 nM | 
CC(C)C[C@@H]1NC(=O)c2ccc(-c3ccc(N4CCN(C(=O)C[C@@H](N)C(=O)N5CCN(c6ccc(-c7ccc8cc7CNC(=O)[C@@H]7CCCN7[C@H](C(=O)NC(C)(C)C)[C@H](C)NC(=O)[C@H]([C@@H](C)O)NC(=O)[C@H](CC(=O)O)NC(=O)[C@H](CC(C)C)NC8=O)cc6)CC5)CC4)cc3)c(c2)CNC(=O)[C@@H]2CCCN2[C@H](C(=O)NC(C)(C)C)[C@H](C)NC(=O)[C@H]([C@@H](C)O)NC(=O)[C@H](CC(=O)O)NC1=O [Compound 493] | 1250 nM | 28 | 45 nM | 
CC(C)C[C@@H]1NC(=O)c2ccc(-c3ccc(N4CCN(C(=O)c5ccc(C(=O)N6CCN(c7ccc(-c8ccc9cc8CNC(=O)[C@@H]8CCCN8[C@H](C(=O)NC(C)(C)C)[C@H](C)NC(=O)[C@H]([C@@H](C)O)NC(=O)[C@H](CC(=O)O)NC(=O)[C@H](CC(C)C)NC9=O)cc7)CC6)s5)CC4)cc3)c(c2)CNC(=O)[C@@H]2CCCN2[C@H](C(=O)NC(C)(C)C)[C@H](C)NC(=O)[C@H]([C@@H](C)O)NC(=O)[C@H](CC(=O)O)NC1=O [Compound 470] | 1110 nM | 66 | 17 nM | 
CC(C)C[C@@H]1NC(=O)c2ccc(-c3ccc(N4CCN(C(=O)C56CC7CC(C5)CC(C(=O)N5CCN(c8ccc(-c9ccc%10cc9CNC(=O)[C@@H]9CCCN9[C@H](C(=O)NC(C)(C)C)[C@H](C)NC(=O)[C@H]([C@@H](C)O)NC(=O)[C@H](CC(=O)O)NC(=O)[C@H](CC(C)C)NC%10=O)cc8)CC5)(C7)C6)CC4)cc3)c(c2)CNC(=O)[C@@H]2CCCN2[C@H](C(=O)NC(C)(C)C)[C@H](C)NC(=O)[C@H]([C@@H](C)O)NC(=O)[C@H](CC(=O)O)NC1=O [Compound 460] | 1850 nM | 30 | 62 nM | 
CC(C)C[C@@H]1NC(=O)C[C@H](CCCCN)N(C)C(=O)[C@H](CCCCNC(=O)c2cc(C(=O)NCCCC[C@@H]3NC(=O)[C@@H]4CCCN4[C@H](C(=O)NC(C)(C)C)[C@H](C)NC(=O)[C@H]([C@@H](C)O)NC(=O)[C@H](CC(=O)O)NC(=O)[C@H](CC(C)C)NC(=O)C[C@H](CCCCN)N(C)C3=O)cc(C(=O)NCCCC[C@@H]3NC(=O)[C@@H]4CCCN4[C@H](C(=O)NC(C)(C)C)[C@H](C)NC(=O)[C@H]([C@@H](C)O)NC(=O)[C@H](CC(=O)O)NC(=O)[C@H](CC(C)C)NC(=O)C[C@H](CCCCN)N(C)C3=O)c2)NC(=O)[C@@H]2CCCN2[C@H](C(=O)NC(C)(C)C)[C@H](C)NC(=O)[C@H]([C@@H](C)O)NC(=O)[C@H](CC(=O)O)NC1=O [Compound 538] | 7650 nM |  | 13 nM | 
COc1cc(C(=O)N2CCN(c3ccc(-c4ccc5cc4CNC(=O)[C@@H]4CCCN4[C@H](C(=O)NC(C)(C)C)[C@H](C)NC(=O)[C@H]([C@@H](C)O)NC(=O)[C@H](CC(=O)O)NC(=O)[C@H](CC(C)C)NC5=O)cc3)CC2)cc(-c2ccc(C(=O)N3CCN(c4ccc(-c5ccc6cc5CNC(=O)[C@@H]5CCCN5[C@H](C(=O)NC(C)(C)C)[C@H](C)NC(=O)[C@H]([C@@H](C)O)NC(=O)[C@H](CC(=O)O)NC(=O)[C@H](CC(C)C)NC6=O)cc4)CC3)cc2F)c1 [Compound 464] | 1550 nM |  |  | 
CC(C)C[C@@H]1NC(=O)c2ccc(-c3ccc(N4CCN(C(=O)c5cc(C(=O)N6CCN(c7ccc(-c8ccc9cc8CNC(=O)[C@@H]8CCCN8[C@H](C(=O)NC(C)(C)C)[C@H](C)NC(=O)[C@H]([C@@H](C)O)NC(=O)[C@H](CC(=O)O)NC(=O)[C@H](CC(C)C)NC9=O)cc7)CC6)cc(C(=O)N6CCN(c7ccc(-c8ccc9cc8CNC(=O)[C@@H]8CCCN8[C@H](C(=O)NC(C)(C)C)[C@H](C)NC(=O)[C@H]([C@@H](C)O)NC(=O)[C@H](CC(=O)O)NC(=O)[C@H](CC(C)C)NC9=O)cc7)CC6)c5)CC4)cc3)c(c2)CNC(=O)[C@@H]2CCCN2[C@H](C(=O)NC(C)(C)C)[C@H](C)NC(=O)[C@H]([C@@H](C)O)NC(=O)[C@H](CC(=O)O)NC1=O [Compound 520] |  |  | 6 nM | 
CC(C)C[C@@H]1NC(=O)c2ccc(-c3ccc(N4CCN(C(=O)c5cc(F)ccc5-c5ccc(F)cc5C(=O)N5CCN(c6ccc(-c7ccc8cc7CNC(=O)[C@@H]7CCCN7[C@H](C(=O)NC(C)(C)C)[C@H](C)NC(=O)[C@H]([C@@H](C)O)NC(=O)[C@H](CC(=O)O)NC(=O)[C@H](CC(C)C)NC8=O)cc6)CC5)CC4)cc3)c(c2)CNC(=O)[C@@H]2CCCN2[C@H](C(=O)NC(C)(C)C)[C@H](C)NC(=O)[C@H]([C@@H](C)O)NC(=O)[C@H](CC(=O)O)NC1=O [Compound 475] |  |  | 18 nM | 
CC(C)C[C@@H]1NC(=O)c2ccc(-c3ccc(N4CCN(C(=O)CCC(=O)N5CCN(c6ccc(-c7ccc8cc7CNC(=O)[C@@H]7CCCN7[C@H](C(=O)NC(C)(C)C)[C@H](C)NC(=O)[C@H]([C@@H](C)O)NC(=O)[C@H](CC(=O)O)NC(=O)[C@H](CC(C)C)NC8=O)cc6)CC5)CC4)cc3)c(c2)CNC(=O)[C@@H]2CCCN2[C@H](C(=O)NC(C)(C)C)[C@H](C)NC(=O)[C@H]([C@@H](C)O)NC(=O)[C@H](CC(=O)O)NC1=O [Compound 484] |  |  | 14 nM | 
CC(C)C[C@@H]1NC(=O)C[C@H](CCCCN)N(C)C(=O)[C@H](CCCCNC(=O)CCCCCC(=O)NCCCC[C@@H]2NC(=O)[C@@H]3CCCN3[C@H](C(=O)NC(C)(C)C)[C@H](C)NC(=O)[C@H]([C@@H](C)O)NC(=O)[C@H](CC(=O)O)NC(=O)[C@H](CC(C)C)NC(=O)C[C@H](CCCCN)N(C)C2=O)NC(=O)[C@@H]2CCCN2[C@H](C(=O)NC(C)(C)C)[C@H](C)NC(=O)[C@H]([C@@H](C)O)NC(=O)[C@H](CC(=O)O)NC1=O [Compound 532] | 7150 nM |  |  | 
CC(C)C[C@@H]1NC(=O)c2ccc(-c3ccc(N4CCN(C(=O)c5ccccc5-c5ccccc5C(=O)N5CCN(c6ccc(-c7ccc8cc7CNC(=O)[C@@H]7CCCN7[C@H](C(=O)NC(C)(C)C)[C@H](C)NC(=O)[C@H]([C@@H](C)O)NC(=O)[C@H](CC(=O)O)NC(=O)[C@H](CC(C)C)NC8=O)cc6)CC5)CC4)cc3)c(c2)CNC(=O)[C@@H]2CCCN2[C@H](C(=O)NC(C)(C)C)[C@H](C)NC(=O)[C@H]([C@@H](C)O)NC(=O)[C@H](CC(=O)O)NC1=O [Compound 517] |  |  | 10 nM | 9.9 nM
